In patent US20200247794A1, “PHARMACOPHORES, COMPOUNDS AND METHODS HAVING APPLICATION IN THE TREATMENT OF CANCER THROUGH INHIBITION OF CYP17A1 AND CYP19A1” (MANGOSUTHU UNIVERSITY OF TECHNOLOGY, priority 2015, published 2020):

Tests used:
[1] = Solubility in DMSO; assay type: physicochemical
[2] = molecular target: T1, CYP2C19 (Homo sapiens, UniProt P33261); assay: CYP inhibition, 5 CYP bactosome mix: CYP2C19 ((S)-mephenytoin); assay type: in vitro ADME; conditions: (S)-mephenytoin 40 μM
T1 construct: purchased Cypex, Dundee CYP/XG001, Batch XG001001; host or cells: E. coli
T1 sequence (P33261 whole entry): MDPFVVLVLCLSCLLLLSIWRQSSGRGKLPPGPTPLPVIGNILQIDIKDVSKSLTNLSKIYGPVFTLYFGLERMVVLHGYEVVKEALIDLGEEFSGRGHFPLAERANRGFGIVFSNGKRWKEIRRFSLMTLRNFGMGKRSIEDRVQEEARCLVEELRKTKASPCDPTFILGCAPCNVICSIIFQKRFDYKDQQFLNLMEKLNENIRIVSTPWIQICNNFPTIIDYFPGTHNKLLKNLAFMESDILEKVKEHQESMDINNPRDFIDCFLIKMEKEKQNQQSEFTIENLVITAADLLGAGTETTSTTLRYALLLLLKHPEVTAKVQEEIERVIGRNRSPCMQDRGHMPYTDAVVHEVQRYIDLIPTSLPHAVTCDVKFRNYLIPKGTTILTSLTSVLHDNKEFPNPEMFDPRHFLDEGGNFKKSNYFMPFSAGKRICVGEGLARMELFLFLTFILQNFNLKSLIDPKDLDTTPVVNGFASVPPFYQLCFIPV
From the text: (§1) CYP Inhibition Against Major 5 Human Liver CYPs in E. coli CYPEX Membranes
The final DMSO concentration was 1%.

[3] = molecular target: T2, CYP2D6 (Homo sapiens, UniProt P10635); assay: CYP inhibition, 5 CYP bactosome mix: CYP2D6 (bufuralol); assay type: in vitro ADME; conditions: bufuralol 10 μM
T2 construct: purchased Cypex, Dundee CYP/XG001, Batch XG001001; host or cells: E. coli
T2 sequence (P10635 whole entry): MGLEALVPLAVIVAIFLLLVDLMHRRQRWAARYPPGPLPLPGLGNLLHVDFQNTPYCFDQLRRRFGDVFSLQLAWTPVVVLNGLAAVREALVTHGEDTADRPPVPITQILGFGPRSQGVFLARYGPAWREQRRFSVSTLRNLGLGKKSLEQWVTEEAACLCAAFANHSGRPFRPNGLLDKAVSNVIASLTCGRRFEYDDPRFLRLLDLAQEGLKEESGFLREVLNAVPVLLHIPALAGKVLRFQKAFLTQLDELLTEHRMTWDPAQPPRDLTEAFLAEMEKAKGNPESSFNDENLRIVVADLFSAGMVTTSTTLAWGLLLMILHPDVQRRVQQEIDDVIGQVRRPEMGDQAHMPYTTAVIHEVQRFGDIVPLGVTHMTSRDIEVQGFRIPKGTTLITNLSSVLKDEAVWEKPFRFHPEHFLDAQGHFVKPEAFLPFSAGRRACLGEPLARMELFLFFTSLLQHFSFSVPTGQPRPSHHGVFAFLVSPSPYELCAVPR
From the text: as §1
The final DMSO concentration was 1%.

[4] = molecular target: T3, CYP1A2 (Homo sapiens, UniProt P05177); assay: CYP inhibition, 5 CYP bactosome mix: CYP1A2 (tacrine); assay type: in vitro ADME; conditions: tacrine 0.5 μM
T3 construct: purchased Cypex, Dundee CYP/XG001, Batch XG001001; host or cells: E. coli
T3 sequence (P05177 1-516): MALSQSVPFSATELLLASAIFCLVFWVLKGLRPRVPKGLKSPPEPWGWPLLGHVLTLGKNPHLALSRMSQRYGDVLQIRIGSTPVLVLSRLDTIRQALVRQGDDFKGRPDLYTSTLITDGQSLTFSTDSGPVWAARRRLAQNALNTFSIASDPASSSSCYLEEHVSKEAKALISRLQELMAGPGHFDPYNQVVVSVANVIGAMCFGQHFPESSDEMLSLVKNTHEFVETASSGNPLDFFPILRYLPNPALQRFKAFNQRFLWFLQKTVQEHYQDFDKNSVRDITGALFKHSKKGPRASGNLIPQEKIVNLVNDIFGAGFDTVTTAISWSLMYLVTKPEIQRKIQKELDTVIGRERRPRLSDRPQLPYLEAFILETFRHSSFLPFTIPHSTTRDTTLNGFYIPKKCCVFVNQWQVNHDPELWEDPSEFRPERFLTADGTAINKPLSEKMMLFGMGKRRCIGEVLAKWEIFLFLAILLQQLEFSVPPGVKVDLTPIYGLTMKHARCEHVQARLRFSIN
From the text: as §1
The final DMSO concentration was 1%.

[5] = molecular target: T4, CYP17A1 (Homo sapiens, UniProt P05093); assay: CYP17A1 inhibition (CYP17A1 bactosomes, progesterone substrate, LC-MS/MS); assay type: biochemical; parameters: purchased Cypex, Dundee, UK; host or cells: bacterial membranes (bactosomes)
T4 sequence (P05093 1-508): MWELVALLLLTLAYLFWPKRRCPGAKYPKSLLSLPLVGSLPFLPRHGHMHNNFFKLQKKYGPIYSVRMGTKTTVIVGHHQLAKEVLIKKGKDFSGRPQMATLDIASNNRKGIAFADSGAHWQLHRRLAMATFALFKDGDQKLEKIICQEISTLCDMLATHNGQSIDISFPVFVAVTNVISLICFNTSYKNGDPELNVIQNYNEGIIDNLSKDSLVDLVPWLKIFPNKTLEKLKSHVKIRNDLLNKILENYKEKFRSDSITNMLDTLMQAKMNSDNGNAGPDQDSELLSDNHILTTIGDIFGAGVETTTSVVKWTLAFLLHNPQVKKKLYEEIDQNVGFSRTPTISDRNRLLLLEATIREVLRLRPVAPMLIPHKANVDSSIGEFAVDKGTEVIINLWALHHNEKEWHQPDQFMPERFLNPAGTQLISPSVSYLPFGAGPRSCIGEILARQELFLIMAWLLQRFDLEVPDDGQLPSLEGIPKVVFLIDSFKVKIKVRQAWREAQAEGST
Method: CYP17A1 inhibition was measured using 20 pmol/ml CYP17A1 bactosomes (Cypex, Dundee, UK) and 0.1 μM progesterone as a substrate and 1 mM NADPH in 50 mM potassium phosphate buffer pH 7.4 containing 5 mM magnesium chloride. Inhibitors were dissolved in DMSO and serially diluted in seven ½ log steps, final concentrations ranging from 50 μM to 50 nM. Reaction volume was 100 μl and final DMSO concentration was 1% (v/v). Reactions were started by the addition of NADPH and incubated at 37° C. for 20 minutes with shaking at 1800 rpm on a Bioshake IQ (Q-Instruments, Jena, Germany). Reactions were terminated by the addition of 200 μl methanol containing 1 μM tolbutamide as an internal standard.

[6] = test system: CYP1A2, CYP2C9, CYP2C19, CYP2D6, and CYP3A4; assay: CYP inhibition against major 5 human liver CYPs (panel, summary in words); assay type: in vitro ADME; conditions: drug-drug interaction remark
[7] = molecular target: T5, CYP3A4 (Homo sapiens, UniProt P08684); assay: CYP inhibition, 5 CYP bactosome mix: CYP3A4 (midazolam); assay type: in vitro ADME; conditions: midazolam 2.5 μM
T5 construct: purchased Cypex, Dundee CYP/XG001, Batch XG001001; host or cells: E. coli
T5 sequence (P08684 whole entry): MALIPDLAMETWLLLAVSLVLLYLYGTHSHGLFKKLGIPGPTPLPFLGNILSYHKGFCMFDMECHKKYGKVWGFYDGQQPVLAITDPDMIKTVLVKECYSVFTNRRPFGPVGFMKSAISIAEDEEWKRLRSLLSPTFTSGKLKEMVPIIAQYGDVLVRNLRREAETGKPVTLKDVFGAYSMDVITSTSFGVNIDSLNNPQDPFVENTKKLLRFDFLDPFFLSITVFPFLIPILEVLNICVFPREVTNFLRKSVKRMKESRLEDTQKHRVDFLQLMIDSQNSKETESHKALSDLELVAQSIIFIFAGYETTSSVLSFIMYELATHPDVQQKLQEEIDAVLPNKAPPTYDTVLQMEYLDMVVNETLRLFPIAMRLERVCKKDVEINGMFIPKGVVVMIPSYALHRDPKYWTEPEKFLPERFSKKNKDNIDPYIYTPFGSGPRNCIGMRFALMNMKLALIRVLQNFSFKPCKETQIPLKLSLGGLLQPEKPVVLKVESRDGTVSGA
From the text: as §1
The final DMSO concentration was 1%.

[8] = Toxicity studies

Soluble in DMSO [1]: Yes
IC50 [2]: 8.3 µM
IC50 [3]: 15 µM
IC50 [4]: 12.6 µM
IC50 ([5]; 20 pmol/ml bactosomes, 0.1 μM progesterone, 50 μM to 50 nM): > 34.1 µM
inhibitory potency of CYP17A1 (in words) ([5]; summary of Table 2): micromolar levels
inhibition of metabolic CYP450 isoforms (in words) [6]: inhibit various CYP450 isoforms
IC50 [7]: 2.7 µM
Structure (SMILES): Cc1nc(SC(C(=O)c2c[nH]c3ccccc23)c2ccccc2)sc1CC(N)=O (racemic) [Compound 3, 2-(2-{[2-(1H-indol-3-yl)-2-oxo-1-phenylethyl]sulfanyl}-4-methyl-1,3-thiazol-5-yl)acetamide]
safety profile [8]: reasonably good safety profiles
